In patent US9957271B2, “Substituted bicyclic aza-heterocycles and analogues as sirtuin modulators” (GlaxoSmithKline, LLC, priority 2012, dated 2018):

Legend:
[1] = molecular target: T1, SIRT1 (Homo sapiens, UniProt Q96EB6); assay: TAMRA based mass spectrometry assay of SIRT1 activity; type: biochemical; conditions: TAMRA peptide substrate; for TAMRA EC1.5 (μM): concentration of test compound giving 150% activation of SIRT1; for Emax: percent maximum fold activation of SIRT1, read-out: TAMRA % Fold Act
T1 sequence (Q96EB6 1-747): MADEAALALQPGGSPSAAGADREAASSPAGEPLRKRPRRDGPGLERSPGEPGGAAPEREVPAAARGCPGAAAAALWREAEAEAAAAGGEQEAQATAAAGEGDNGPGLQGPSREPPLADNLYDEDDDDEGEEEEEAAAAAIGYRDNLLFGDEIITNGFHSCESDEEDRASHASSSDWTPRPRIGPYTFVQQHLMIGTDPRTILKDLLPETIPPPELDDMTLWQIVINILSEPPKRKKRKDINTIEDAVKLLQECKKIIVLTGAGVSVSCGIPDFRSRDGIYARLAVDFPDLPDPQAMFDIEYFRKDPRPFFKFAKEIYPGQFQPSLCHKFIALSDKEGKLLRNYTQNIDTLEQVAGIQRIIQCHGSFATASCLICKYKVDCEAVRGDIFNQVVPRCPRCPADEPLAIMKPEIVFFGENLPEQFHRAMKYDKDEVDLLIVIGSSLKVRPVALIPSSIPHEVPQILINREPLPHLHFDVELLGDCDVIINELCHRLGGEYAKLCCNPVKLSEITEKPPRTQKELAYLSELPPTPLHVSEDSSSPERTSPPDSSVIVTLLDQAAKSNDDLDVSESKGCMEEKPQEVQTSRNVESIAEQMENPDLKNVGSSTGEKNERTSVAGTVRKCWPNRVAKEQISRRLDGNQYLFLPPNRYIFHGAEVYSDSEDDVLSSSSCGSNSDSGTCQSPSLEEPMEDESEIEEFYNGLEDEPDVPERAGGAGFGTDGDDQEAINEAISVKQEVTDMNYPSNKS
Summary of the method: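 Recombinant N-terminal His-tagged human SIRT1 (10 nM, E. coli) incubated 25 min at 25 °C with 0.5 μM 5TMR-labelled p53-derived acetyl-peptide and 120 μM βNAD+ in Tris-acetate pH 8 buffer with DTT and 0.05% BSA, compound at varying concentrations. Stopped with formic acid; deacetylated peptide or OAADPR measured by mass spectrometry relative to DMSO controls.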

[2] = molecular target: T1, SIRT1; assay: Trp mass spectrometry assay of SIRT1 activity; type: biochemical; conditions: Trp peptide substrate; for Trp EC1.5 (μM): concentration of test compound giving 150% activation of SIRT1; for Emax: percent maximum fold activation of SIRT1, read-out: Trp % Fold Act
Summary of the method: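 His-tagged SIRT1 expressed in E. coli BL21(DE3), 10 nM, incubated 25 min at 25° C. with 0.5 μM Ac-RHKK(Ac)W-NH2 peptide and 120 μM βNAD+ in 50 mM HEPES pH 7.5, […], 1 mM DTT, 0.05% BSA; formic acid stop. OAADPR or deacetylated peptide measured by mass spectrometry; EC1.5 and percent maximum activation versus DMSO control.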

| SMILES | TAMRA EC1.5 (μM) [1] | Emax [1] [%] | Trp EC1.5 (μM) [2] | Emax [2] [%] |
| --- | --- | --- | --- | --- |
| O=C(Nc1cccc(CN2CCOCC2)n1)c1cnc2ccc(-c3ccccc3Cl)nn12 [Compound 116] | A (EC1.5<1 μM) | ≥ 350 | C (EC1.5>25 μM) | < 350 |
| O=C(Nc1cnccn1)c1cnc2ccc(-c3ccccc3Cl)nn12 [Compound 119] | B (EC1.5 1-25 μM) | < 350 | C (EC1.5>25 μM) | < 350 |
| O=C(Nc1cnc2ccc(-c3ccccc3C(F)(F)F)nn12)c1cncc(N2CCOCC2)n1 [Compound 120] | A (EC1.5<1 μM) | ≥ 350 | B (EC1.5 1-25 μM) | ≥ 350 |
| O=C(Nc1cnc2ccc(-c3ccccc3C(F)(F)F)nn12)c1nccs1 [Compound 122] | A (EC1.5<1 μM) | ≥ 350 | B (EC1.5 1-25 μM) | < 350 |
| Cc1cc(C)c(NC(=O)c2cnc3ccc(-c4ccccc4C(F)(F)F)nn23)cn1 [Compound 125] | B (EC1.5 1-25 μM) | < 350 | B (EC1.5 1-25 μM) | < 350 |
| O=C(Nc1cccc(N2CCOCC2)n1)c1cnc2ccc(-c3ccc(F)c(F)c3F)nn12 [Compound 126] | A (EC1.5<1 μM) | < 350 | B (EC1.5 1-25 μM) | < 350 |
| O=C(Nc1ccncc1)c1cnc2ccc(-c3ccc(F)c(F)c3F)nn12 [Compound 128] | C (EC1.5>25 μM) | < 350 | C (EC1.5>25 μM) | < 350 |
| O=C(Nc1cccnc1)c1cnc2ccc(-c3ccc(F)c(F)c3F)nn12 [Compound 131] | C (EC1.5>25 μM) | < 350 | C (EC1.5>25 μM) | < 350 |
| O=C(Nc1cccc(N2CCOCC2)n1)c1cnc2ccc(-c3ccccc3F)nn12 [Compound 133] | A (EC1.5<1 μM) | ≥ 350 | A (EC1.5<1 μM) | < 350 |
| O=C(Nc1ccnc(N2CCC2)c1)c1cnc2ccc(-c3ccccc3F)nn12 [Compound 134] | A (EC1.5<1 μM) | ≥ 350 | C (EC1.5>25 μM) | < 350 |
| O=C(Nc1cccc(CN2CCOCC2)n1)c1cnc2ccc(-c3cccc(Cl)c3F)nn12 [Compound 140] | A (EC1.5<1 μM) | ≥ 350 | B (EC1.5 1-25 μM) | < 350 |
| O=C(Nc1ccncc1)c1cnc2ccc(-c3cccc(Cl)c3F)nn12 [Compound 141] | C (EC1.5>25 μM) | < 350 | C (EC1.5>25 μM) | < 350 |
| O=C(Nc1cccnc1)c1cnc2ccc(-c3cccc(Cl)c3F)nn12 [Compound 143] | C (EC1.5>25 μM) | < 350 | A (EC1.5<1 μM) | < 350 |
| O=C(Nc1cnc2ccc(-c3ccccc3C(F)(F)F)nn12)c1cccnc1OCC(O)CO (centres unmarked) [Compound 146] | A (EC1.5<1 μM) | ≥ 350 | B (EC1.5 1-25 μM) | ≥ 350 |
| O=C(Nc1ccc(CN2CCCC2)nc1)c1cnc2ccc(-c3ccccc3C(F)(F)F)nn12 [Compound 149] | B (EC1.5 1-25 μM) | < 350 | B (EC1.5 1-25 μM) | < 350 |
| O=C(Nc1ncc(CN2CCOCC2)s1)c1cnc2ccc(-c3ccccc3C(F)(F)F)nn12 [Compound 150] | B (EC1.5 1-25 μM) | < 350 | B (EC1.5 1-25 μM) | < 350 |
| Cc1csc(NC(=O)c2cnc3ccc(-c4ccccc4C(F)(F)F)nn23)n1 [Compound 152] | A (EC1.5<1 μM) | ≥ 350 | A (EC1.5<1 μM) | ≥ 350 |
| CN(C)CCn1cc(NC(=O)c2cnc3ccc(-c4ccccc4C(F)(F)F)nn23)cn1 [Compound 155] | B (EC1.5 1-25 μM) | < 350 | C (EC1.5>25 μM) | < 350 |
| O=C(Nc1ccnc(N2CCC2)c1)c1cnc2ccc(-c3cccc(Cl)c3F)nn12 [Compound 159] | A (EC1.5<1 μM) | < 350 | B (EC1.5 1-25 μM) | < 350 |
| O=C(Nc1ccncc1)c1cnc2ccc(-c3c(F)cccc3Cl)nn12 [Compound 161] | B (EC1.5 1-25 μM) | < 350 | C (EC1.5>25 μM) | < 350 |
| O=C(Nc1cccc(N2CCOCC2)n1)c1cnc2ccc(-c3c(F)cccc3Cl)nn12 [Compound 164] | A (EC1.5<1 μM) | ≥ 350 | B (EC1.5 1-25 μM) | < 350 |
| O=C(Nc1ccccn1)c1cnc2ccc(-c3c(F)cccc3F)nn12 [Compound 167] | C (EC1.5>25 μM) | < 350 | C (EC1.5>25 μM) | < 350 |
| O=C(Nc1ccnc(N2CCC2)c1)c1cnc2ccc(-c3c(F)cccc3F)nn12 [Compound 170] | A (EC1.5<1 μM) | < 350 | B (EC1.5 1-25 μM) | < 350 |
| O=C(Nc1cccc(CN2CCOCC2)n1)c1cnc2ccc(-c3c(F)cccc3F)nn12 [Compound 172] | B (EC1.5 1-25 μM) | ≥ 350 | C (EC1.5>25 μM) | < 350 |
| COc1nccc(NC(=O)c2cnc3ccc(-c4ccccc4C(F)(F)F)nn23)n1 [Compound 173] | A (EC1.5<1 μM) | ≥ 350 | B (EC1.5 1-25 μM) | ≥ 350 |
| COc1ccnc(NC(=O)c2cnc3ccc(-c4ccccc4C(F)(F)F)nn23)n1 [Compound 175] | A (EC1.5<1 μM) | ≥ 350 | B (EC1.5 1-25 μM) | ≥ 350 |
| O=C(Nc1cnccc1N1CCOCC1)c1cnc2ccc(-c3ccccc3C(F)(F)F)nn12 [Compound 177] | C (EC1.5>25 μM) | < 350 | C (EC1.5>25 μM) | < 350 |
| O=C(Nc1ccccn1)c1cnc2ccc(-c3cccc(F)c3Cl)nn12 [Compound 182] | B (EC1.5 1-25 μM) | < 350 | B (EC1.5 1-25 μM) | < 350 |
| O=C(Nc1cccnc1)c1cnc2ccc(-c3cccc(F)c3Cl)nn12 [Compound 183] | B (EC1.5 1-25 μM) | < 350 | C (EC1.5>25 μM) | < 350 |
